Assay results as given in patent US4189499A, “Lysine 4-allyloxy-3-chlorophenylacetate and method of its preparation” (priority 1979, dated 1980).
“And” between values parts separate entries of the source, which are not always exact repeats. Equal entries are not always repeated. “Also recorded” adds a separate entry of the source. Where two headings read alike, the source gives them in different places.

Tests used:
pH of aqueous solution = format: physicochemical
[1] = Stability and hygroscopicity; format: physicochemical
[2] = tested on: rabbit dorsal long muscle; assay: Local tolerability after intramuscular injection, muscle removed at 24 hours, irritation by arbitrary scores; format: in vivo; parameters: scale not given here
Protocol: Such a tolerability was estimated after injection of equivalent solutions of the various preparations, effected in the rabbit dorsal long muscle, removing muscle 24 hours after injection and estimating the degree of induced irritation through arbitrary scores.

[3] = Extent of availability after different routes, intravenous administration as reference; format: in vivo, rabbit
Protocol: (§1) The following pharmacological experimentation was carried out in order to estimate the comparative absorption and bioavailability through various administration routes in rabbits of Alclofenac acid and its lysine salt.

[4] = Pharmacokinetics from plasma levels after oral, rectal and intramuscular administration in rabbits; format: in vivo, rabbit
Protocol: as §1

Solubility = format: physicochemical; settings: in words, solvent as stated
[5] = Analgesic, antipyretic and antiinflammatory activity; format: in vivo; settings: versus the starting acid
[6] = Pharmacokinetics after i.v. injection in rabbits; format: in vivo, rabbit; settings: i.v. 90 mg/kg (as acid)
Protocol: as §1

rat leg = assay: Tolerability by volume increase of rat leg versus commercial injectable preparations; format: in vivo; settings: FIG. 1
Excerpt: This type of preparation was estimated also in comparison with commercially available injectable preparations according to the method of volume increase of rat leg and results are shown in FIG. 1 of the drawings.

[7] = General tolerability by route of administration; format: in vivo
[8] = 100 mg/ml (as acid), 0.5 ml injected
[9] = 131 mg/ml (as acid), 0.25 ml injected
[10] = INTRAMUSCOLAR 80 mg/kg, ± E.S.M.
[11] = P.OS 90 mg/kg, ± E.S.M., listed as Lysine Salt
[12] = P.OS 90 mg/kg, ± E.S.M., listed as Lysine Salt, 90 mg/kg
[13] = RECTAL 100 mg/kg, ± E.S.M., listed as Lysine Salt
[14] = RECTAL 100 mg/kg, ± E.S.M., listed as Lysine Salt, 100 mg/kg
[15] = rabbit, plasma, im, 80 mg/kg, INTRAMUSCOLAR 80 mg/kg, ± E.S.M.
[16] = individual, in order Rabbit I, II, III, IV, 90 mg/kg

With `C=CCOc1ccc(CC(=O)O)cc1Cl` [Alclofenac-Lysine, lysine 4-allyloxy-3-chlorophenylacetate] the “pH value of the 10% aqueous solution” value (pH of aqueous solution; 10% aqueous solution) was 7.7, the “pH of 25% parts/volume aqueous solution” value (pH of aqueous solution; 25% parts/volume, specification) was 7.4-7.8 and the “Stability of the solution” value ([1]; in words, listed as compound (1)) was “perfectly stable”. For the same compound, the Hygroscopicity ([1]; isolated solid) was “non-hygroscopic”, the “SCORES at 24 hours, Average” value [2, 8] was 2.3 and the “SCORES at 24 hours, Average” value [2, 9] was 2.6. For the same compound, the “SCORES at 24 hours, individual” value [2, 8] was 2 (2×) and 3, the “SCORES at 24 hours, individual” value [2, 9] was 2 and 3 and 4 (2×) and 0 and the “% Availability (AUC o → 2h)” value ([3]; I.V. 90 mg/kg, 0-2 h, reference) was 100%. For the same compound, the “% Availability (AUC o → 4h)” value ([3]; I.V. 90 mg/kg, 0-4 h, reference) was 100%, the “% Availability (practical AUC)” value ([3]; I.V. 90 mg/kg, reference) was 100% and the “% Availability (theoretical AUC)” value ([3]; I.V. 90 mg/kg, reference) was 100%. For the same compound, the bioavailability at 2 h ([3]; rabbit, plasma, 100 mg/kg, Rectal 100 mg/kg, 0-2 h, i.v. as reference, read-out: % Availability (AUC o → 2h)) was 95.7%, the bioavailability ([3]; rabbit, plasma, 100 mg/kg, Rectal 100 mg/kg, i.v. as reference, read-out: % Availability (practical AUC)) was 100% and the bioavailability ([3]; rabbit, plasma, 100 mg/kg, Rectal 100 mg/kg, i.v. as reference, read-out: % Availability (theoretical AUC)) was 89.2%. The bioavailability ([3]; rabbit, plasma, im, 80 mg/kg, I.M. 80 mg/kg, i.v. as reference, read-out: % Availability (practical AUC)) was 95.4%, the bioavailability ([3]; rabbit, plasma, im, 80 mg/kg, I.M. 80 mg/kg, i.v. as reference, read-out: % Availability (theoretical AUC)) was 155% and the bioavailability at 4 h ([3]; rabbit, plasma, po, 90 mg/kg, P.O. 90 mg/kg, 0-4 h, i.v. as reference, read-out: % Availability (AUC o → 4h)) was 58.1%. The bioavailability ([3]; rabbit, plasma, po, 90 mg/kg, P.O. 90 mg/kg, i.v. as reference, read-out: % Availability (practical AUC)) was 88.5%, the bioavailability ([3]; rabbit, plasma, po, 90 mg/kg, P.O. 90 mg/kg, i.v. as reference, read-out: % Availability (theoretical AUC)) was 82.7% and the Ka [4, 10] was 0.0131 ± 0.0031 min⁻¹. The t1/2α [4, 10] was 1 ± 0.183 h, the Ka [4, 11] was 0.0174 ± 0.0047 min⁻¹ and the t1/2α [4, 11] was 0.616667 ± 0.13333 h. For the same compound, the Cmax [4, 12] was 454.5 ± 152.2 µg/mL, the Kel [4, 12] was 0.0023 ± 0.0005 min⁻¹ and the Tmax [4, 12] was 2.18 ± 0.467 h. For the same compound, the Vdβ [4, 12] was 0.301 ± 0.050 L/kg, the t1/2β [4, 12] was 6.28 ± 1.53 h and the Ka [4, 13] was 0.132 ± 0.032 min⁻¹. It also gave a t1/2α [4, 13] of 0.13 ± 0.05 h, a CL [4, 14] of 0.55 ± 0.03 mL/kg and a Cmax [4, 14] of 473.7 ± 24.1 µg/mL. It also gave a Kel [4, 14] of 0.0026 ± 0.0004 min⁻¹, a Tmax [4, 14] of 0.65 ± 0.183 h and a Vdβ [4, 14] of 0.248 ± 0.072 L/kg. The t1/2β [4, 14] was 4.47 ± 1.18 h, the “intramuscular absorption velocity, in words” value ([4]; intramuscular, versus per os) was “may be compared with that per os” and the “intramuscular blood levels, in words” value ([4]; intramuscular, versus per os) was “instantaneous and sustained blood levels are lower”. For the same compound, the absorption velocity ([4]; oral and rectal route) was “higher absorption velocity even through the oral and rectal route”, the “absorption, in words” value ([4]; oral and rectal route, rabbits, listed as Lysine Salt) was “absorbed faster and to a higher extent in comparison with the acidic substance” and the CL/F [4, 15] was 0.67 ± 0.06 mL/min/kg. The k el [4, 15] was 1.17e-05 s⁻¹, the Cmax ([4]; rabbit, plasma, im, 80 mg/kg, INTRAMUSCOLAR 80 mg/kg, ± E.S.M., read-out: Cmax) was 144 ± 30 µg/mL and the Vd/F ([4]; rabbit, plasma, im, 80 mg/kg, INTRAMUSCOLAR 80 mg/kg, ± E.S.M., read-out: Vdβ) was 0.607 ± 0.09 L/kg. The half-life ([4]; rabbit, plasma, im, 80 mg/kg, INTRAMUSCOLAR 80 mg/kg, ± E.S.M., read-out: t1/2β) was 23.4 ± 6.3 h, the Tmax ([4]; rabbit, plasma, im, 80 mg/kg, INTRAMUSCOLAR 80 mg/kg, ± E.S.M., read-out: tmax (converted)) was 4.62 h and the Solubility (Solubility) was “soluble in biological fluids; also recorded: extremely soluble in water and alcohols; also recorded: insoluble in acetone”. The Solubility (Solubility; listed as compound (1)) was “very soluble in water and alcohols; also recorded: insoluble in acetone”, the “analgesic, antipyretic and antiinflammatory properties” value [5] was “equal or even superior to those of the starting acid” and the A ([6]; MEAN ± S.E.M. of 4 rabbits) was 165.7 ± 16.6 µg/mL. For the same compound, the B ([6]; MEAN ± S.E.M. of 4 rabbits) was 293.5 ± 14.2 µg/mL, the K12 ([6]; MEAN ± S.E.M. of 4 rabbits) was 0.027 ± 0.003 min⁻¹ and the K21 ([6]; MEAN ± S.E.M. of 4 rabbits) was 0.053 ± 0.009 min⁻¹. The α ([6]; MEAN ± S.E.M. of 4 rabbits) was 0.082 ± 0.011 min⁻¹, the A [6, 16] was 170.51 µg/mL and 151.04 µg/mL and 209.59 µg/mL and 131.86 µg/mL and the B [6, 16] was 269.19 µg/mL and 324.95 µg/mL and 269.89 µg/mL and 310.16 µg/mL. The CL [6, 16] was 0.56 mL/min/kg and 0.63 mL/min/kg and 0.36 mL/min/kg and 0.74 mL/min/kg, the K12 [6, 16] was 0.030 min⁻¹ and 0.034 min⁻¹ and 0.028 min⁻¹ and 0.018 min⁻¹ and the K21 [6, 16] was 0.051 min⁻¹ and 0.078 min⁻¹ and 0.038 min⁻¹ and 0.047 min⁻¹. The Kel [6, 16] was 0.0033 min⁻¹ and 0.0019 min⁻¹ and 0.0036 min⁻¹, the Vdβ [6, 16] was 0.274 L/kg and 0.329 L/kg and 0.285 L/kg and the t1/2α [6, 16] was 6 min and 10.5 min (2×). For the same compound, the t1/2β [6, 16] was 6.8 h and 5.02 h and 10.5 h and 4.43 h, the α [6, 16] was 0.083 min⁻¹ and 0.113 min⁻¹ and 0.067 min⁻¹ and 0.066 min⁻¹ and the β [6, 16] was 0.0017 min⁻¹ and 0.0023 min⁻¹ and 0.0011 min⁻¹ and 0.0026 min⁻¹. For the same compound, the k el ([6]; rabbit, in vivo, iv, 90 mg/kg, MEAN ± S.E.M. of 4 rabbits, read-out: β (converted)) was 3.17e-05 s⁻¹, the clearance ([6]; rabbit, plasma, iv, 90 mg/kg, MEAN ± S.E.M. of 4 rabbits) was 0.57 ± 0.08 mL/min/kg and the k el ([6]; rabbit, plasma, iv, 90 mg/kg, MEAN ± S.E.M. of 4 rabbits, read-out: Kel (converted)) was 4.83e-05 s⁻¹. The Vd ([6]; rabbit, plasma, iv, 90 mg/kg, MEAN ± S.E.M. of 4 rabbits, read-out: Vdβ) was 0.304 ± 0.015 L/kg, the half-life ([6]; rabbit, plasma, iv, 90 mg/kg, MEAN ± S.E.M. of 4 rabbits, read-out: t1/2α) was 0.15 ± 0.0167 h and the half-life ([6]; rabbit, plasma, iv, 90 mg/kg, MEAN ± S.E.M. of 4 rabbits, read-out: t1/2β) was 6.68 ± 1.35 h. It also gave a Vd ([6]; rabbit, plasma, iv, 90 mg/kg, MEAN ± S.E.M. of 4 rabbits, read-out: √1) of 0.196 ± 0.005 L/kg, a Vd ([6]; rabbit, plasma, iv, 90 mg/kg, MEAN ± S.E.M. of 4 rabbits, read-out: √2) of 0.392 ± 0.06 L/kg and a k el ([6]; rabbit, plasma, iv, 90 mg/kg, individual, in order Rabbit I, II, III, IV, read-out: Kel (converted)) of 4.5e-05 s⁻¹. For the same compound, the Vd ([6]; rabbit, plasma, iv, 90 mg/kg, individual, in order Rabbit I, II, III, IV, read-out: Vdβ) was 0.33 L/kg, the half-life ([6]; rabbit, plasma, iv, 90 mg/kg, individual, in order Rabbit I, II, III, IV, read-out: t1/2α) was 0.142 h and the Vd ([6]; rabbit, plasma, iv, 90 mg/kg, individual, in order Rabbit I, II, III, IV, read-out: √1) was 0.205 L/kg. The “tolerability versus Mervan” value (rat leg) was “better more tolerated than a commercially available preparation”, the tolerability on injection ([7]; intravenous or intramuscular) was “well tolerated after either intravenous or intramuscular administration” and the tolerability per os ([7]; oral) was “better tolerated per os; also recorded: better tolerance”.
